Reference: patent publication US9423343B2, “Membrane potential change detection device and membrane potential change detection method” (HAMAMATSU PHOTONICS K.K., priority 2010, dated 2016)

System: CHO cells
Test: Reflection interference measurement of membrane potential change (depolarization) after KCl dispensation, Measurement Example 1
Type: cell-based, Chinese hamster
Conditions: for change rate of average luminosity at the peak: peak slightly over five minutes, FIG. 11
From the text: The functions and operation of the processing unit 20 will be described further referring to the flowchart of FIG. 7. First, the reflection interference image of adhesion faces of cells 101 is obtained by the reflection interference detection camera 110 (step S101, corresponding to “reflection interference imaging step” in the scope of claims). The amplitude of interfering light differs according to the distance of each cell 101 adhering onto the substrate as the bottom surface of the vessel 102 from the substrate as the bottom surface of the vessel 102, and the reflection interference image is taken as a contrast of bright and dark patterns. Next, correction is made for shading of reflected light in the field of the reflection interference image. In addition, an offset correction for background part is carried out in each time unit, so as to prevent temporal variation in value of the background without the cells 101. Through these image arithmetic corrections, we can obtain the reflection interference image with little spatial and temporal variation.
The reflection interference detection camera 110 acquires reflection interference images, for example, at intervals of one second. The intervals of acquisition of reflection interference images are preferably suitably controlled according to a rate of change of membrane potential of the cells 101. After a fixed time from a start of acquisition of image by the reflection interference detection camera 110, a chemical dispensing operation of the dispenser 117 is performed to dispense an intended chemical in an intended concentration to the solution in which the cells 101 are immersed.
The analysis unit 202 calculates a parameter about adhesion between each cell 101 and the transparent member 102a using the reflection interference images obtained intermittently in this manner (step S102, corresponding to “analysis step” in the scope of claims). In the present embodiment, the analysis unit calculates a “change rate of average luminosity” as the parameter to evaluate the change of membrane potential of cell 101 (corresponding to “parameter about adhesion” in the scope of claims).
When the image reception unit 201 receives the reflection interference images sequentially output from the reflection interference detection camera 110, the analysis unit 202 calculates the average luminosity I(t) of the measurement region in each of the reflection interference images and calculates a change rate dI relative to an average luminosity of the measurement region acquired in advance before chemical dispensation (which will be referred to hereinafter as average luminosity I(base) as a base”) (step S103, corresponding to “analysis step” in the scope of claims). […] The change rate dI is calculated by the formula below. […]
The analysis unit 202 detects a change of membrane potential of the cells 101 on the basis of the change rate dI calculated by the above formula. Namely, when a predetermined change rate dI is calculated, the analysis unit 202 makes such a valuation that there is some change detected in membrane potential in the cells 101. The analysis unit 202 may output a plot along time axis of the change rate dI (%) relative to the average luminosity before chemical dispensation calculated by the above formula, e.g., graphs as shown in (A) of FIGS. 8 and (B) of FIG. 8. […]

[Cl-].[K+] [KCl, potassium chloride]
change rate of average luminosity at the peak (KCl concentration 6.25 mM): +8% | change rate of average luminosity at the peak (KCl concentration 25 mM): +35% | change rate of average luminosity at the peak (KCl concentration 50 mM): +55% | change rate of average luminosity at the peak (KCl concentration 100 mM): +95% | change of reflection interference image after dispensation (image at 5 minutes after dispensation, FIG. 9): the CHO cells departed from the transparent member on which the cells were laid, to make the reflection interference image brighter
